The source made the active and inactive calls.
Legend:
Cytochrome P450 1A2 = molecular target: T1, Cytochrome P450 1A2 (Homo sapiens, UniProt P05177);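 further: PubChem cytochrome P450 panel assay, CYP1A2 panel member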
T1 sequence (P05177 whole entry): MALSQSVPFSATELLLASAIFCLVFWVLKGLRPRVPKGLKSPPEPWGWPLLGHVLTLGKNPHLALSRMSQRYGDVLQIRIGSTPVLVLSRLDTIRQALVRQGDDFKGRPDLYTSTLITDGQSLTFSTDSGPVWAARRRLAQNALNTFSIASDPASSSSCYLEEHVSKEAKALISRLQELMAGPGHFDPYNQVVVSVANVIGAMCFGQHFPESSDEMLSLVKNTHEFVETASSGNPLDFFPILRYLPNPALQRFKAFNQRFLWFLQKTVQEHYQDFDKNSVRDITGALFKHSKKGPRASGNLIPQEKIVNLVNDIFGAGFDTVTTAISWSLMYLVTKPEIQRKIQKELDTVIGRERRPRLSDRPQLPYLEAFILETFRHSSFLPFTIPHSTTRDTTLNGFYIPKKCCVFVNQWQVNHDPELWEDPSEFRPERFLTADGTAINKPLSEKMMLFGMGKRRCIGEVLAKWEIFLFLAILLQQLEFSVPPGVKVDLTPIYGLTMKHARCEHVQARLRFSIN

BJ [1] = assay: cytotoxicity toward BJ-TERT fibroblasts, dose response, cell-based, RAS-independent, luminescence (AID 1933); format: functional; conditions: Homo sapiens
Streptococcus = assay: Group A Streptococcus viability loss, dose response, counter-screen for streptokinase expression inhibitor project, luminescence, BacTiterGlo (AID 1915); format: functional, organism-based;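 further: potency for reduction of bacterial viability or growth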
[2] = tested on: Streptococcus sp. 'group A'; assay: growth inhibition of control SK(-) GAS strain, dose response, counter-screen for streptokinase expression inhibitor project, luminescence, kanamycin, BacTiterGlo, confirmation (AID 1900); format: functional, organism-based
[3] = molecular target: Heat shock protein HSP 90-alpha (Homo sapiens, UniProt P07900); format: functional, organism-based
Paired box protein Pax-8 = Paired box protein Pax-8 (Homo sapiens, UniProt Q06710); assay: inhibitors of PAX8-driven TPO luciferase reporter, dose response, RMG-I cells, cherry-pick (AID 687027); format: functional, cell-based;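 further: luciferase reporter driven by Pax8 target thyroperoxidase promoter measured by SteadyGlo luminescence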
[4] = cytotoxicity in HEK-293T NF-kB-Luc cells, dose response, cytotoxicity control for B/T-cell NF-kB inhibitor project, cell-based, uHTS hits (AID 489019); format: functional;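 further: IC50 reflects cytotoxicity as loss of cell viability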
cells [5] = format: functional, cell-based; conditions: HEK-CNG
Jurkat [6] = assay: antigen receptor-induced NF-kB inhibitors, dose response, Jurkat, luciferase reporter, luminescence, B- and T-cell (AID 489004); format: functional, cell-based; conditions: Homo sapiens;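 further: NF-kB luciferase reporter Jurkat cells stimulated with PMA plus ionomycin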
[7] = cytotoxicity toward DRD oncogenic fibroblasts, dose response, cell-based, non-viral oncogenic, luminescence (AID 1934); format: functional; conditions: Homo sapiens
BJ [8] = assay: cytotoxicity toward BJ-TERT-LT-ST fibroblasts, dose response, cell-based, RAS-independent, luminescence (AID 1935); format: functional; conditions: Homo sapiens;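 further: BJ fibroblasts immortalized with TERT plus LT and ST oncogenes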
Galanin receptor type 3 = Galanin receptor type 3 (Homo sapiens, UniProt O60755); assay: Fluorescence-based cell-based primary high throughput dose response assay to identify antagonists of the Galanin Receptor 3 (GalR3).; format: functional
BJ [9] = assay: cytotoxicity toward Ras-transformed BJeLR fibroblasts, dose response, cell-based, alamar blue fluorescence, cherrypicked samples (AID 2631); format: functional; conditions: Homo sapiens;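 further: confirmatory dose-response assay in RAS-dependent BJ fibroblasts engineered with TERT, LT and ST, with cytotoxicity read by fluorescence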
[10] = molecular target: T2, DNA repair protein RAD52 homolog (Homo sapiens, UniProt P43351); format: functional, biochemical
T2 sequence (P43351 whole entry): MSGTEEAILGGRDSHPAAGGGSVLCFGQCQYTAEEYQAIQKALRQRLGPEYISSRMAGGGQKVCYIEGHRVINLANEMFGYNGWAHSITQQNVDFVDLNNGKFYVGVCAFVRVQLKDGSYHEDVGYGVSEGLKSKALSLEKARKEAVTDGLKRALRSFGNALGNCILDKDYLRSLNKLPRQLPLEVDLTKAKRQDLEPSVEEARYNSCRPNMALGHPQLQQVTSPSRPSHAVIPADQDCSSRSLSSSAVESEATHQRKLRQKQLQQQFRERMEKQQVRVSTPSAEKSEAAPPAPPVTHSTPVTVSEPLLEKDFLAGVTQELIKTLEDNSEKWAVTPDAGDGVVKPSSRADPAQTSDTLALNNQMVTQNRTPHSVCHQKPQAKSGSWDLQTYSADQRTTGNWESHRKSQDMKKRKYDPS

Streptokinase A = molecular target: T3, Streptokinase A (Streptococcus pyogenes serotype M1, UniProt P10520); assay: S. pyogenes streptokinase expression inhibitors, potency, dose response, plasminogen activation absorbance, OD405 (AID 1914); format: functional, Streptococcus pyogenes M1 GAS;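 further: secreted streptokinase activity via plasminogen activation per viability signal from cell pellet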
T3 sequence (P10520 whole entry): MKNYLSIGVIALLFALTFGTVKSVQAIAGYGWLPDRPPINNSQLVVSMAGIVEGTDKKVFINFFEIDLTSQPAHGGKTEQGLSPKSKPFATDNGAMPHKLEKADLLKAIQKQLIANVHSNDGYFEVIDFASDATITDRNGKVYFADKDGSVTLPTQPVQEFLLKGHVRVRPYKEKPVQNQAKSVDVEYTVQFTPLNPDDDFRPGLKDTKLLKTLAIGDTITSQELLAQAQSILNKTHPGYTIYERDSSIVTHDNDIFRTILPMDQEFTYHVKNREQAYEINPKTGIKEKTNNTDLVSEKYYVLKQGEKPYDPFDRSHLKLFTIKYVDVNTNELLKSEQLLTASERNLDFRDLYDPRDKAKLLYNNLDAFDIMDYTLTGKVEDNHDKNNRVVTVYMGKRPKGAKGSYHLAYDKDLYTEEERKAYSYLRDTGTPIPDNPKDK

INS1 = assay: beta cell apoptosis inhibitors, cytokine rescue, dose response, luminescence, retest (AID 449756); format: functional, cell-based; conditions: Rattus norvegicus;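 further: cell death triggered by IL-1 beta plus TNF-alpha plus IFN-gamma mixture; protective hits raise ATP signal compared with cytokine alone wells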
BJ [11] = assay: cells; format: functional, cell-based; conditions: Homo sapiens
HEK293 [12] = assay: SAR Analysis of small molecule inhibitors of B-cell specific antigen receptor-induced NF-kB activation in a HEK-293T cell line using a luminescence assay - Set 2. [Related pubchem assays (depositor defined):AID435022, AID435025, AID489021]; format: functional, cell-based; conditions: Homo sapiens
Jurkat [13] = assay: SAR Analysis of small molecule inhibitors of […] specific antigen receptor-induced NF-kB activation in a Jurkat cell line using a luminescence assay - Set 3. [Related pubchem assays (depositor defined):AID435022, AID435025, AID465]; format: functional, cell-based; conditions: Homo sapiens
HEK293 [14] = assay: cytotoxicity in HEK293T NF-kB-Luc cells, SAR follow-up, cytotoxicity control for NF-kB activator project, cell-based, resazurin fluorescence (AID 493251); format: functional; conditions: Homo sapiens
[15] = HepG2 cell cytotoxicity, dose response, cytotoxicity control for non-replicating M. tuberculosis project (AID 489018); format: functional; conditions: Mycobacterium tuberculosis
cells [16] = format: functional
[17] = C. albicans growth with fluconazole, confirmation, fluorescence, retest (AID 2467); format: functional, cell-based
[18] = NIH-3T3 fibroblast cytotoxicity, dose response, cytotoxicity control, cell-based, fluorescence, Alamar Blue, secondary assay (AID 2327); format: functional;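 further: NIH-3T3 mouse fibroblasts cultured with fluconazole at 8 µg/mL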
[19] = molecular target: Dual specificity protein phosphatase 3 (Homo sapiens, UniProt P51452); assay: SAR VHR1 Fluorescent Assay for In Vitro dose response studies Set 3. [Related pubchem assays (depositor defined):AID1654, AID1661, AID1878]; format: functional
Estrogen receptor = molecular target: T4, Estrogen receptor (Homo sapiens, UniProt P03372);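 further: potency for inhibiting coactivator peptide recruitment to the receptor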
T4 sequence (P03372 whole entry): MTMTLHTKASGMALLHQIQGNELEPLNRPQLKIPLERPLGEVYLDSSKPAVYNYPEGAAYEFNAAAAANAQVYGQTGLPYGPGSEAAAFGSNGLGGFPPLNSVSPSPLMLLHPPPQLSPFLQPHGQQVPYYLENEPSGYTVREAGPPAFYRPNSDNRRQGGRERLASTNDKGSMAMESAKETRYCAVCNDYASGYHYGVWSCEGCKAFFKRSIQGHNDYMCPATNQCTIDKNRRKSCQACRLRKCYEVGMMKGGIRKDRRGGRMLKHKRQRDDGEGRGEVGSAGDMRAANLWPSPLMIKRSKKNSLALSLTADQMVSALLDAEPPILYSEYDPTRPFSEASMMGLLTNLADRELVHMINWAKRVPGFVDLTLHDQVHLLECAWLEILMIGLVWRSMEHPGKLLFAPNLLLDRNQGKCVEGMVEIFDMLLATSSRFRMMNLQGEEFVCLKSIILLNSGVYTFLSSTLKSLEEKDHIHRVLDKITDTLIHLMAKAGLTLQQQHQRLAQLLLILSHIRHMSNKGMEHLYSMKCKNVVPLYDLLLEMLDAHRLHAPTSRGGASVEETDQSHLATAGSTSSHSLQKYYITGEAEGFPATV

[20] = Vero E6 cell cytotoxicity, dose response, cytotoxicity control for non-replicating M. tuberculosis project, secondary assay (AID 492998); format: functional, VeroE6; conditions: Vero C1008
[21] = THP-1 cell cytotoxicity, dose response, cytotoxicity control for non-replicating M. tuberculosis project (AID 489025); format: functional
Escherichia coli = assay: microbe, parasite or virus in culture
[22] = Luminescence Cell-Based Dose Retest to Confirm Inhibitors of Cancer Stem Cells. [Related pubchem assays (depositor defined):AID2717, AID2721]; format: functional; conditions: Homo sapiens
[23] = cytotoxicity in HMLE control line with eGFP shRNA, dose response, counter-screen for HMLE_sh_ECad selective toxicity project, cell-based, HMLE_sh_eGFP, luminescence (AID 463074); format: functional, Homo sapiens;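 further: HMLE human mammary epithelial cells expressing control shRNA against eGFP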
[24] = molecular target: T5, High affinity choline transporter 1 (Homo sapiens, UniProt Q9GZV3); assay: CHT inhibitors, dose response, cell-based, 5-point CRC, membrane potential dye (AID 504840); format: functional
T5 sequence (Q9GZV3 whole entry): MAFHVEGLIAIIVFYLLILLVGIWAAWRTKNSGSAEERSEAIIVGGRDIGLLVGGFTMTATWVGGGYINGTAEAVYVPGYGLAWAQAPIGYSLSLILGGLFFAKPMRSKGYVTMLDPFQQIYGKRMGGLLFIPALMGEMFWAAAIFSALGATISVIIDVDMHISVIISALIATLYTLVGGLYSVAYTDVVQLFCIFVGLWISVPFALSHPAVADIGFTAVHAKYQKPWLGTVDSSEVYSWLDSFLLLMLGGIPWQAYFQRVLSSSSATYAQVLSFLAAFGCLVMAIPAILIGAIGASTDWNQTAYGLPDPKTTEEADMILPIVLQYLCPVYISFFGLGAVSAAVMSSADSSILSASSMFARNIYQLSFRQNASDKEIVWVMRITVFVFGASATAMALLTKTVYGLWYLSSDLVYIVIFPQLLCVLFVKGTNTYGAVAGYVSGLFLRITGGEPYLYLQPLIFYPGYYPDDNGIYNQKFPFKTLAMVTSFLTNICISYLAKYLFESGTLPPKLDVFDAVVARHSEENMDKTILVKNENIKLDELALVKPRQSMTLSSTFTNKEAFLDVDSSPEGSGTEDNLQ

Galanin receptor type 3, sequence (O60755 whole entry): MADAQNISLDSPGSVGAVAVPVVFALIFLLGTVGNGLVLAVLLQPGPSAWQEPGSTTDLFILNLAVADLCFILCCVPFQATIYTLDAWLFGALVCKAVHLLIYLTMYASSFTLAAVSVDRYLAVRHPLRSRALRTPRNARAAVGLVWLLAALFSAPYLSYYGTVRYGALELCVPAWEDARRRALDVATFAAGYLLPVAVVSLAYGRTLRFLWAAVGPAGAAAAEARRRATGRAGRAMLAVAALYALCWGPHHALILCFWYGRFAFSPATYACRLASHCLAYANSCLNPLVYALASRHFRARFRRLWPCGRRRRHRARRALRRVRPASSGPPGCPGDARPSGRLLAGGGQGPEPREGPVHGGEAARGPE
Dual specificity protein phosphatase 3, sequence (P51452 whole entry): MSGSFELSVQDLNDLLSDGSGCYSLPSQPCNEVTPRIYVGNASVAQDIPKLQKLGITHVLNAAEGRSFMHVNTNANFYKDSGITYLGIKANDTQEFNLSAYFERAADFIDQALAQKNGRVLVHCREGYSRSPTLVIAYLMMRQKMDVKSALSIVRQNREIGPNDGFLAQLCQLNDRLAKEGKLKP
Paired box protein Pax-8, sequence (Q06710 whole entry): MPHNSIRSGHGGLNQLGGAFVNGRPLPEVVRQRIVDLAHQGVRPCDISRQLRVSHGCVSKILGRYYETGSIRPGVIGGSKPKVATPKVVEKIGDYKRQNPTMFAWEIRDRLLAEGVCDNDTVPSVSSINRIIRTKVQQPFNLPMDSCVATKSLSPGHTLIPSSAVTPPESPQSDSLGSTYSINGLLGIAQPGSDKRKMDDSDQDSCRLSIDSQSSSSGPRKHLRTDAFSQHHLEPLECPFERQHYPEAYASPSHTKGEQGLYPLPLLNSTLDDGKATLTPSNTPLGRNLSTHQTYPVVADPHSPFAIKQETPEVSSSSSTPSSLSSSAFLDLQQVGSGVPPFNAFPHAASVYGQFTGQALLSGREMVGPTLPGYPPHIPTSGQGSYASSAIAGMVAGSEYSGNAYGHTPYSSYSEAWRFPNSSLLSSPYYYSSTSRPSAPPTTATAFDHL

With `N[C@H](C(=O)O)c1nnn[nH]1` the AC50 (Cytochrome P450 1A2) was “inconclusive”.
In the case of `CCCCCCCCCCCCn1ccc(=N)cc1`, the EC50 (BJ [1]) was 2.72 µM (active), the EC50 (Streptococcus) was 10.3 µM (active) and the EC50 [2] was 3.09 µM (active). The AC50 [3] was 10.8 µM (active), the AC50 (Paired box protein Pax-8) was 3.74 µM (active) and the IC50 [4] was 66.1 µM (inactive). The EC50 (cells [5]) was > 29.9 µM (inactive), the IC50 (Jurkat [6]) was 0.92 µM (active) and the EC50 [7] was 8.01 µM (active). For the same compound, the EC50 (BJ [8]) was 5.37 µM (inconclusive), the IC50 (Galanin receptor type 3) was 1.28 µM (active) and the EC50 (BJ [9]) was 0.949 µM (active). The AC50 [10] was 14.8 µM (active), the EC50 (Streptokinase A) was 17.6 µM (active) and the AC50 (INS1) was 0.293 µM (active). For the same compound, the EC50 (BJ [11]) was 2.85 µM (inconclusive).
In the case of `CC(C)(C)c1ccc(-c2noc(CCC(=O)Nc3ccccc3)n2)cc1`, the IC50 (HEK293 [12]) was 0.23 µM (active), the IC50 (Jurkat [13]) was 0.473 µM (active) and the IC50 (HEK293 [14]) was > 80 µM (inactive).
With `COc1cccc2sc(Nc3nnc(-c4ccc(F)cc4)o3)nc12` the EC50 (Streptococcus) was 2.25 µM (active), the EC50 [2] was 0.29 µM (active) and the CC50 [15] was > 20 µM (active). The IC50 (cells [16]) was 15.3 µM (active), the EC50 [17] was 1.72 µM (active) and the EC50 [18] was > 160 µM (inconclusive). For the same compound, the IC50 [19] was 7.3 µM (active), the IC50 (Estrogen receptor) was 25 µM (active) and the CC50 [20] was 9.26 µM (active). For the same compound, the CC50 [21] was 14.5 µM (active).
With `COCCNC(=O)c1cnc2ccc(S(=O)(=O)N3CCc4ccccc43)cc2c1O` the EC50 (BJ [1]) was > 150 µM (not active), the AC50 (Escherichia coli) was 87.7 µM (active) and the AC50 [22] was 2.32 µM (active). The EC50 [7] was 11.5 µM (active), the EC50 (BJ [8]) was > 150 µM (not active) and the EC50 (BJ [11]) was 7.76 µM (active).
In the case of `COc1ccc(CN(C)c2ncnc3sccc23)c(OC)c1OC`, the AC50 [22] was 15.8 µM (active), the AC50 [23] was 27.4 µM (active) and the IC50 [24] was 13.8 µM (active).

Reference: ChEMBL document CHEMBL1201862, “PubChem BioAssay data set” (2004)
